Counter-ions that a name gives are not always drawn.
Compared with `COc1cc(-c2nc3ccccc3o2)ccc1-c1ccccn1` (as salt: hydrochloride) [Example 54, 2-(3-Methoxy-4-pyridin-2-ylphenyl)-1,3-benzoxazole hydrochloride salt], `N#CCc1ccc(-c2nc3ccccc3o2)cc1-c1cccc(C#N)c1` [Example 4, 5′-(1,3-Benzoxazol-2-yl)-2′-(cyanomethyl)-1,1′-biphenyl-3-carbonitrile] is lower in melting point: 215 °C for the first, 175 to 176 °C for the second.

Compared with `N#CCc1ccc(-c2nc3ccccc3o2)cc1Br` [Example 1, [4-(1,3-Benzoxazol-2-yl)-2-bromnophenyl]acetonitrile], `N#CCc1ccc(-c2nc3ccccc3o2)cc1N` [Example 7, [2-Amino-4-(1,3-benzoxazol-2-yl)phenyl]acetonitrile] is higher in melting point: 190 to 191 °C for the first, 198 to 199 °C for the second.

With `N#CCc1ccc(-c2nc3ccccc3o2)cc1[N+](=O)[O-]` [Example 6, [4-(1,3-Benzoxazol-2-yl)-2-nitrophenyl]acetonitrile] the melting point was 203 °C.
